{"source": "paper PMC5218480", "about": "(PLoS ONE, 2017)", "test_system": "MV-4-11 cells", "assay": "Gene expression microarray analysis (Affymetrix PrimeView) and GSEA", "type": "cell-based, human", "design": "RFU PODN (11730768_x_at) / Fold change /veh PODN (11730768_x_at) / RFU LINC00158 (11744669_a_at) / Fold change /veh LINC00158 (11744669_a_at) / RFU DUSP10 (11751237_a_at) / Fold change /veh DUSP10 (11751237_a_at) / RFU ID3 (11757404_x_at) / Fold change /veh ID3 (11757404_x_at) / RFU PLEKHG5 (11737974_s_at) / Fold change /veh PLEKHG5 (11737974_s_at) / RFU LRRC4B (11730491_at) / Fold change /veh LRRC4B (11730491_at) / RFU GIMAP4 (11747438_a_at) / Fold change /veh GIMAP4 (11747438_a_at) / RFU KRT8 (11758183_x_at) / Fold change /veh KRT8 (11758183_x_at) / RFU CNN1 (11734310_a_at) / Fold change /veh CNN1 (11734310_a_at) / RFU VPS37D (11726825_at) / Fold change /veh VPS37D (11726825_at) / RFU C10orf10 (11716522_x_at) / Fold change /veh C10orf10 (11716522_x_at) / RFU KIR2DL2 /// KIR2DL4 /// KIR2DL5A /// KIR2DL5B /// KIR2DS1 /// KIR2DS2 /// KIR2DS3 /// KIR2DS4 /// KIR3DL3 /// KIR3DL3 /// KIR3DS1 (11738374_at) / Fold change /veh KIR2DL2 /// KIR2DL4 /// KIR2DL5A /// KIR2DL5B /// KIR2DS1 /// KIR2DS2 /// KIR2DS3 /// KIR2DS4 /// KIR3DL3 /// KIR3DL3 /// KIR3DS1 (11738374_at) / RFU C1QL1 (11718748_at) / Fold change /veh C1QL1 (11718748_at) / RFU TMPRSS4 (11747572_a_at) / Fold change /veh TMPRSS4 (11747572_a_at) / RFU HAMP (11756126_x_at) / Fold change /veh HAMP (11756126_x_at) / RFU RNFT2 (11725882_a_at) / Fold change /veh RNFT2 (11725882_a_at) / RFU NR4A2 (11747474_a_at) / Fold change /veh NR4A2 (11747474_a_at) / RFU ABCC12 (11746883_a_at) / Fold change /veh ABCC12 (11746883_a_at) / RFU TMEM136 (11760407_x_at) / Fold change /veh TMEM136 (11760407_x_at) / RFU CLDN22 /// WWC2 (11732394_at) / Fold change /veh CLDN22 /// WWC2 (11732394_at) / RFU HLA-DPB1 (11760878_x_at) / Fold change /veh HLA-DPB1 (11760878_x_at) / RFU SPINT1 (11716480_a_at) / Fold change /veh SPINT1 (11716480_a_at) / RFU GAP43 (11754022_s_at) / Fold change /veh GAP43 (11754022_s_at) / RFU A4GNT (11735810_at) / Fold change /veh A4GNT (11735810_at) / RFU PRB3 (11715151_x_at) / Fold change /veh PRB3 (11715151_x_at) / RFU TUBB4B (11761932_at) / Fold change /veh TUBB4B (11761932_at) / RFU CAPN14 (11732068_a_at) / Fold change /veh CAPN14 (11732068_a_at) / RFU TMCC2 (11721928_a_at) / Fold change /veh TMCC2 (11721928_a_at) / RFU IRGQ (11745062_a_at) / Fold change /veh IRGQ (11745062_a_at) / RFU FAM174B (11720279_a_at) / Fold change /veh FAM174B (11720279_a_at) / RFU TMPRSS4 (11748680_a_at) / Fold change /veh TMPRSS4 (11748680_a_at) / RFU FAM212B (11763350_a_at) / Fold change /veh FAM212B (11763350_a_at) / RFU PLEKHG5 (11743358_a_at) / Fold change /veh PLEKHG5 (11743358_a_at) / RFU ZSCAN30 (11745921_a_at) / Fold change /veh ZSCAN30 (11745921_a_at) / RFU CMKLR1 (11741424_a_at) / Fold change /veh CMKLR1 (11741424_a_at) / RFU LOC101060620 /// MAPK8IP1 (11723275_at) / Fold change /veh LOC101060620 /// MAPK8IP1 (11723275_at) / RFU SPTSSB (11747773_x_at) / Fold change /veh SPTSSB (11747773_x_at) / RFU PRSS12 (11739890_at) / Fold change /veh PRSS12 (11739890_at) / RFU BIN1 (11741810_x_at) / Fold change /veh BIN1 (11741810_x_at) / RFU WNT11 (11732464_a_at) / Fold change /veh WNT11 (11732464_a_at) / RFU C10orf10 (11716521_a_at) / Fold change /veh C10orf10 (11716521_a_at) / RFU C5orf56 (11738089_at) / Fold change /veh C5orf56 (11738089_at) / RFU CYB561 (11721691_x_at) / Fold change /veh CYB561 (11721691_x_at) / RFU ANKRD19P (11752326_a_at) / Fold change /veh ANKRD19P (11752326_a_at) / RFU OR2T12 /// OR2T33 /// OR2T8 (11738714_s_at) / Fold change /veh OR2T12 /// OR2T33 /// OR2T8 (11738714_s_at) / RFU VCAN (11748164_a_at) / Fold change /veh VCAN (11748164_a_at) / RFU JSRP1 (11732532_at) / Fold change /veh JSRP1 (11732532_at) / RFU KRTAP10-11 (11738290_x_at) / Fold change /veh KRTAP10-11 (11738290_x_at) / RFU MYO3A (11730013_a_at) / Fold change /veh MYO3A (11730013_a_at) / RFU EBF3 (11725865_a_at) / Fold change /veh EBF3 (11725865_a_at) / RFU CAMK2N1 (11719241_x_at) / Fold change /veh CAMK2N1 (11719241_x_at) / RFU C5orf56 (11738088_a_at) / Fold change /veh C5orf56 (11738088_a_at) / RFU OLFML3 (11715873_a_at) / Fold change /veh OLFML3 (11715873_a_at) / RFU LOC100653217 /// NTM (11731650_a_at) / Fold change /veh LOC100653217 /// NTM (11731650_a_at) / RFU MAPK11 (11762145_a_at) / Fold change /veh MAPK11 (11762145_a_at) / RFU FIZ1 (11724087_x_at) / Fold change /veh FIZ1 (11724087_x_at) / RFU OASL (11726364_x_at) / Fold change /veh OASL (11726364_x_at) / RFU SOX15 (11748057_x_at) / Fold change /veh SOX15 (11748057_x_at) / RFU CD79A (11719716_a_at) / Fold change /veh CD79A (11719716_a_at) / RFU HIST1H1D (11736915_at) / Fold change /veh HIST1H1D (11736915_at) / RFU CASKIN2 (11723855_a_at) / Fold change /veh CASKIN2 (11723855_a_at) / RFU LOC730098 (11760151_x_at) / Fold change /veh LOC730098 (11760151_x_at) / RFU OR4N2 (11742367_at) / Fold change /veh OR4N2 (11742367_at) / RFU PRRT2 (11749266_a_at) / Fold change /veh PRRT2 (11749266_a_at) / RFU SNX32 (11753110_a_at) / Fold change /veh SNX32 (11753110_a_at) / RFU CDHR5 (11726645_a_at) / Fold change /veh CDHR5 (11726645_a_at) / RFU RCAN1 (11760418_a_at) / Fold change /veh RCAN1 (11760418_a_at) / RFU FAM167A (11723789_a_at) / Fold change /veh FAM167A (11723789_a_at) / RFU FAM26E (11764081_at) / Fold change /veh FAM26E (11764081_at) / RFU ISYNA1 (11749810_s_at) / Fold change /veh ISYNA1 (11749810_s_at) / RFU ACY1 (11761880_at) / Fold change /veh ACY1 (11761880_at) / RFU 11764098_at / Fold change /veh 11764098_at / RFU SAMD14 (11745864_x_at) / Fold change /veh SAMD14 (11745864_x_at) / RFU NPB (11741838_a_at) / Fold change /veh NPB (11741838_a_at) / RFU TMPRSS6 (11731388_a_at) / Fold change /veh TMPRSS6 (11731388_a_at) / RFU KRTAP10-2 (11738614_at) / Fold change /veh KRTAP10-2 (11738614_at) / RFU ARHGAP8 /// PRR5-ARHGAP8 (11727945_x_at) / Fold change /veh ARHGAP8 /// PRR5-ARHGAP8 (11727945_x_at) / RFU KRTAP5-7 /// NADSYN1 (11734609_at) / Fold change /veh KRTAP5-7 /// NADSYN1 (11734609_at) / RFU RASL12 (11751679_a_at) / Fold change /veh RASL12 (11751679_a_at) / RFU CDKN2B (11736163_a_at) / Fold change /veh CDKN2B (11736163_a_at) / RFU PRF1 (11729649_at) / Fold change /veh PRF1 (11729649_at) / RFU, ZNF638 /// ZNF638-IT1 / Fold change vs veh, ZNF638 /// ZNF638-IT1 / RFU, PANK3 / Fold change vs veh, PANK3 / RFU, SH3YL1 / Fold change vs veh, SH3YL1 / RFU, ZEB2 / Fold change vs veh, ZEB2 / RFU, NRIP1 / Fold change vs veh, NRIP1 / RFU, PTTG1IP / Fold change vs veh, PTTG1IP / RFU, CAPN2 / Fold change vs veh, CAPN2 / RFU, MED14 / Fold change vs veh, MED14 / RFU, SNORA58 / Fold change vs veh, SNORA58 / RFU, C1orf63 / Fold change vs veh, C1orf63 / RFU, LRRFIP1 / Fold change vs veh, LRRFIP1 / RFU, NDUFAF7 / Fold change vs veh, NDUFAF7 / RFU, SLC12A2 / Fold change vs veh, SLC12A2 / RFU, IBTK / Fold change vs veh, IBTK / RFU, ESF1 / Fold change vs veh, ESF1 / Fold change vs veh, TMEM50B / RFU, TAOK1 / Fold change vs veh, TAOK1 / RFU, ACBD3 / Fold change vs veh, ACBD3 / RFU, TMA16 / Fold change vs veh, TMA16 / RFU, RWDD3 / Fold change vs veh, RWDD3 / RFU, BCAT1 / Fold change vs veh, BCAT1 / RFU, EDEM3 / Fold change vs veh, EDEM3 / RFU, TMEM33 / Fold change vs veh, TMEM33 / RFU, WDR75 / Fold change vs veh, WDR75 / RFU, AHCTF1 / Fold change vs veh, AHCTF1 / RFU, TFRC / Fold change vs veh, TFRC / RFU, ZDHHC17 / Fold change vs veh, ZDHHC17 / RFU, NOM1 / Fold change vs veh, NOM1 / RFU, ARL8B / Fold change vs veh, ARL8B / RFU, ZBTB11 / Fold change vs veh, ZBTB11 / RFU, TAMM41 / Fold change vs veh, TAMM41 / RFU, KIAA1704 /// LOC100996395 / Fold change vs veh, KIAA1704 /// LOC100996395 / RFU, ING1 / Fold change vs veh, ING1 / RFU, TRMT61B / Fold change vs veh, TRMT61B / RFU, FUBP3 / Fold change vs veh, FUBP3 / RFU, TP53 / Fold change vs veh, TP53 / RFU, TNKS2 / Fold change vs veh, TNKS2 / RFU, ZFP14 / Fold change vs veh, ZFP14 / RFU, ACTR2 / Fold change vs veh, ACTR2 / RFU, PPP3R1 / Fold change vs veh, PPP3R1 / RFU, PIK3R1 / Fold change vs veh, PIK3R1 / RFU, HNRNPA1 / Fold change vs veh, HNRNPA1 / RFU, RNF170 / Fold change vs veh, RNF170 / RFU, ZNF28 / Fold change vs veh, ZNF28 / RFU, RNGTT / Fold change vs veh, RNGTT / RFU, OGT / Fold change vs veh, OGT / RFU, BRD1 / Fold change vs veh, BRD1 / RFU, MARS / Fold change vs veh, MARS / RFU, ZNF655 / Fold change vs veh, ZNF655 / RFU, FAHD1 / Fold change vs veh, FAHD1 / RFU, BDP1 / Fold change vs veh, BDP1 / RFU, LRRCC1 / Fold change vs veh, LRRCC1 / RFU, ARID1A / Fold change vs veh, ARID1A / RFU, ZNF146 / Fold change vs veh, ZNF146 / RFU, ZNF330 / Fold change vs veh, ZNF330 / RFU, GPN3 / Fold change vs veh, GPN3 / RFU, C9orf123 / Fold change vs veh, C9orf123 / RFU, N4BP2L2 / Fold change vs veh, N4BP2L2 / RFU, ARFIP1 / Fold change vs veh, ARFIP1 / RFU, FAM179B / Fold change vs veh, FAM179B / RFU, BCL10 / Fold change vs veh, BCL10 / RFU, UHRF1BP1L / Fold change vs veh, UHRF1BP1L / RFU, BET1 / Fold change vs veh, BET1 / RFU, CNOT2 / Fold change vs veh, CNOT2 / RFU, ZNF268 / Fold change vs veh, ZNF268 / Fold change vs veh, ZNF507 / RFU, DGCR2 / Fold change vs veh, DGCR2 / RFU, WDSUB1 / Fold change vs veh, WDSUB1 / Fold change vs veh, HSP90B1 /// MIR3652 / RFU, ADSS / Fold change vs veh, ADSS / RFU, GK / Fold change vs veh, GK / RFU, ZNF148 / Fold change vs veh, ZNF148 / RFU, TAF9 / Fold change vs veh, TAF9 / RFU, SLC1A5 / Fold change vs veh, SLC1A5 / RFU, SLMO2 / Fold change vs veh, SLMO2 / RFU, ABCC4 / Fold change vs veh, ABCC4 / RFU, LOC101060439 /// RAP1B / Fold change vs veh, LOC101060439 /// RAP1B / RFU, RFX7 / Fold change vs veh, RFX7 / RFU, GTPBP10 / Fold change vs veh, GTPBP10 / RFU, CNEP1R1 / Fold change vs veh, CNEP1R1 / RFU, BIVM-ERCC5 /// ERCC5 / Fold change vs veh, BIVM-ERCC5 /// ERCC5 / RFU, ILF3 / Fold change vs veh, ILF3 / RFU 11762660_at / Fold change /veh 11762660_at / RFU VCAN (11757783_s_at) / Fold change /veh VCAN (11757783_s_at) / RFU DDX43 (11728927_at) / Fold change /veh DDX43 (11728927_at) / RFU KRT8 (11758188_x_at) / Fold change /veh KRT8 (11758188_x_at) / RFU NKD1 (11759106_at) / Fold change /veh NKD1 (11759106_at) / RFU SRD5A1 (11742802_a_at) / Fold change /veh SRD5A1 (11742802_a_at) / RFU TPSAB1 /// TPSB2 (11721975_s_at) / Fold change /veh TPSAB1 /// TPSB2 (11721975_s_at) / RFU GSTM3 (11746129_a_at) / Fold change /veh GSTM3 (11746129_a_at) / RFU IL23R (11737362_x_at) / Fold change /veh IL23R (11737362_x_at) / RFU TMEM51 (11727254_a_at) / Fold change /veh TMEM51 (11727254_a_at) / RFU PIWIL2 (11732686_x_at) / Fold change /veh PIWIL2 (11732686_x_at) / RFU ORM1 (11744905_x_at) / Fold change /veh ORM1 (11744905_x_at) / RFU CCDC152 (11743942_at) / Fold change /veh CCDC152 (11743942_at) / RFU ECM1 (11717891_a_at) / Fold change /veh ECM1 (11717891_a_at) / RFU IL23R (11748794_a_at) / Fold change /veh IL23R (11748794_a_at) / RFU TNFAIP8L3 (11732012_x_at) / Fold change /veh TNFAIP8L3 (11732012_x_at) / RFU MBOAT4 (11741988_at) / Fold change /veh MBOAT4 (11741988_at) / RFU 11764193_at / Fold change /veh 11764193_at / RFU TMEM53 (11763286_at) / Fold change /veh TMEM53 (11763286_at) / RFU MAGEB2 (11727129_at) / Fold change /veh MAGEB2 (11727129_at) / RFU TMEM200A (11744735_a_at) / Fold change /veh TMEM200A (11744735_a_at) / RFU CCDC152 (11751479_a_at) / Fold change /veh CCDC152 (11751479_a_at) / RFU FAM211A (11726209_a_at) / Fold change /veh FAM211A (11726209_a_at) / RFU RGS16 (11746705_a_at) / Fold change /veh RGS16 (11746705_a_at) / RFU VCAN (11755009_s_at) / Fold change /veh VCAN (11755009_s_at) / RFU RHOB (11743442_s_at) / Fold change /veh RHOB (11743442_s_at) / RFU RGS16 (11720943_a_at) / Fold change /veh RGS16 (11720943_a_at) / RFU RGS16 (11720944_at) / Fold change /veh RGS16 (11720944_at) / RFU, VPS4B / Fold change vs veh, VPS4B / RFU, CREB1 / Fold change vs veh, CREB1 / RFU, DNAJC13 / Fold change vs veh, DNAJC13 / RFU, GNAQ / Fold change vs veh, GNAQ / RFU, CDK5R1 / Fold change vs veh, CDK5R1 / RFU, ZRANB3 / Fold change vs veh, ZRANB3 / RFU, CUL4A / Fold change vs veh, CUL4A / RFU, CCNY / Fold change vs veh, CCNY / RFU, UFL1 / Fold change vs veh, UFL1 / RFU, COG3 / Fold change vs veh, COG3 / RFU, DIAPH2 / Fold change vs veh, DIAPH2 / RFU, SKA2 / Fold change vs veh, SKA2 / RFU, AFF3 / Fold change vs veh, AFF3 / RFU, LMF1 / Fold change vs veh, LMF1 / RFU, IPO11 / Fold change vs veh, IPO11 / RFU, DFFB / Fold change vs veh, DFFB / RFU, FOXP1 / Fold change vs veh, FOXP1 / RFU, CARD8 / Fold change vs veh, CARD8 / RFU, STRN3 / Fold change vs veh, STRN3 / RFU, ADK / Fold change vs veh, ADK / RFU, RASSF2 / Fold change vs veh, RASSF2 / RFU, WIPF1 / Fold change vs veh, WIPF1 / RFU, LARP1B / Fold change vs veh, LARP1B / RFU, RASA1 / Fold change vs veh, RASA1 / RFU, RB1 / Fold change vs veh, RB1 / RFU, PPFIA1 / Fold change vs veh, PPFIA1 / RFU, MAT2A / Fold change vs veh, MAT2A / RFU, CCT5 / Fold change vs veh, CCT5 / RFU, WDR92 / Fold change vs veh, WDR92 / RFU, CUX1 / Fold change vs veh, CUX1 / RFU, TTC7A / Fold change vs veh, TTC7A / RFU, TMEM135 / Fold change vs veh, TMEM135 / RFU, DEPTOR / Fold change vs veh, DEPTOR / RFU, CPM / Fold change vs veh, CPM / RFU, DNAJB6 / Fold change vs veh, DNAJB6 / RFU, CACNA2D3 / Fold change vs veh, CACNA2D3 / RFU, DTX4 / Fold change vs veh, DTX4 / RFU, TFCP2 / Fold change vs veh, TFCP2 / RFU, GMCL1 /// GMCL1P1 / Fold change vs veh, GMCL1 /// GMCL1P1 / RFU, AEBP2 / Fold change vs veh, AEBP2 / RFU, SNHG1 /// SNORD22 /// SNORD25 /// SNORD26 /// SNORD27 /// SNORD28 /// SNORD29 /// SNORD31 / Fold change vs veh, SNHG1 /// SNORD22 /// SNORD25 /// SNORD26 /// SNORD27 /// SNORD28 /// SNORD29 /// SNORD31 / Fold change (Aza/veh), C12orf56 (ProbeSet 11735607_a_at) / Fold change (ACY-1035/veh), C12orf56 (ProbeSet 11735607_a_at) / Fold change (Aza/veh), FGFR1OP (ProbeSet 11751329_s_at) / Fold change (ACY-1035/veh), FGFR1OP (ProbeSet 11751329_s_at) / Fold change (Aza/veh), VPS36 (ProbeSet 11739960_a_at) / Fold change (ACY-1035/veh), VPS36 (ProbeSet 11739960_a_at) / RFU SYPL1 (11715823_x_at) / Fold change /veh SYPL1 (11715823_x_at) / RFU IGFBP7 (11715501_s_at) / Fold change /veh IGFBP7 (11715501_s_at) / RFU REEP3 (11722064_at) / Fold change /veh REEP3 (11722064_at) / RFU IGLL1 (11728026_x_at) / Fold change /veh IGLL1 (11728026_x_at): dose or concentration left out as unconfirmed", "settings": "MV-4-11 cells, 48 hours"}
{"smiles": "Nc1ccc(-c2cccs2)cc1NC(=O)c1ccc2c(c1)cc(C1CC1)n2CCN1CCOCC1", "note": "[ACY-1035]", "values": [{"measurement": "Fold change /veh C5orf56 (11738088_a_at)", "result": 0.99}]}
